ChEMBL document CHEMBL1132708, “Synthesis and voltage-clamp studies of methyl 1,4-dihydro-2, 6-dimethyl-5-nitro-4-(benzofurazanyl)pyridine-3-carboxylate racemates and enantiomers and of their benzofuroxanyl analogues” (J Med Chem, 1999)
Values belong to the compound of their own block, whether it stands above or below them.

Experiments:
Type in all cases: functional
[1] = biological target: T1, Voltage-gated L-type calcium channel (Rattus norvegicus, UniProt P22002+Q02485+P27732); experiment: Percent block of total Ba2+ current on L-type [Ca2+] channels in rat RIN-m5F at 3 insulinoma cells (n = 12)
[2] = biological target: T1, Voltage-gated L-type calcium channel; experiment: Percent increase in current at -20 mV on L-type [Ca2+] channels in rat RIN-m5F at 3 insulinoma cells (n = 8)
[3] = biological target: T1, Voltage-gated L-type calcium channel; experiment: Percent increase in current at -20 mV on L-type [Ca2+] channels in rat RIN-m5F at 3 insulinoma cells (n = 5)

Increase [1]: 164%
SMILES: CO/C(O)=C1\C(C)=NC(C)=C([N+](=O)[O-])C1c1cccc2nonc12 (single isomer, unassigned; (+))

Increase [2]: 247%
SMILES: CO/C(O)=C1\C(C)=NC(C)=C([N+](=O)[O-])C1c1ccc2nonc2c1 (racemic)

Increase [3]: 224%
SMILES: CO/C(O)=C1\C(C)=NC(C)=C([N+](=O)[O-])C1c1ccc2nonc2c1 (single isomer, unassigned; (+))
